In patent publication US10959966B2, “Compositions and methods for modulating HEXM1 expression” (CASE WESTERN RESERVE UNIVERSITY, priority 2014, dated 2021):

Assays:
Type in all cases: cell-based
[1] = test system: HEXIM1 expression in LNCaP prostate cancer cells; assay: HEXIM1 expression by western blot in LNCaP cells treated with HMBA analogs
Experimental: (§1) FIGS. 2(A-B) illustrate Western blots and a graph showing the effect of HMBA analogs on HEXIM1 expression. LNCaP cells were treated with vehicle, HMBA (5 mM) and its analogs at 500 μM for 24 h. Level of HEXIM1 (upper panel) and β-actin (lower panel) was analyzed by Western blot of cell extracts with HEXIM1 antibody and β-actin antibody respectively. The bands of HEXIM1 were quantified using ImageJ (NIH) and normalized to β-actin. The results are the representative of three independent experiments.
as §1, with “3(A-B)” for “2(A-B)”, “lower concentration” for “the effect”, “identified” for “its”, “100” for “500”
FIGS. 4(A-B) illustrate Western blots and a graph showing dose-dependent study of compound 4a1 and HMBA on HEXIM1 expression. Level of HEXIM1 (upper panel) and β-actin (lower panel) was analyzed by Western blot of cell extracts with HEXIM1 antibody and β-actin antibody respectively.
HMBA analogs described herein can be synthesized based on the HMBA scaffold and then selected for their ability to induce HEXIM1 expression in an in vitro cell assay. For example, the synthesized HMBA analogs can be administered to cells, such as LNCaP prostate cancer cells, and the level of HEXIM1 in such cells can be measured using western blot analyses. The level of HEXIM1 expression of cells that are treated with a potential HMBA analog can be compared to control cells treated without the HMBA analog or with HMBA. Control cells (untreated or treated with HMBA) can be assigned a relative HEXIM1 expression value. Induction or promotion of HEXIM1 expression is achieved when the HEXIM1 expression relative to the control is increased at least about 1%, 5%, 10%, 15%, 20%, 30%, 50%, 75%, 100%, 200%, or more.
The synthesis of the symmetrical and unsymmetrical derivatives is described in Scheme 1 and 2, respectively. For the symmetrical analogs, moieties A and C were kept identical. Besides the acetyl group of HMBA, methanesulfonyl group, propionyl group or butyryl group were introduced. In addition, a bulky benzoyl group was introduced. The active proton in the amide moiety was replaced with methyl group to generate a series of analogs with lower solubility. For the moiety B, various linkers such as 1,3-propylene, […] 1,4-cyclohexylene, 1,4-phenylene-bis(methylene), 1,4-cyclohexylene-bis(methylene) were tested for optimization. For the unsymmetrical analogs, the A and B moieties were kept the same as HMBA while the C moiety was modified with aryl or alkyl amide. A total of 32 compounds were synthesized, and these compounds were examined for their potency to induce HEXIM1 in LNCaP prostate cancer cells. HMBA (5 mM) was used as a positive control.
Therefore, these three compounds were screened at lower concentrations.

[2] = test system: HEXIM1 expression in breast cancer MCF7 cells; assay: HEXIM1 protein expression in MCF7 cells; conditions: 18 h
Experimental: FIGS. 5(A-C) illustrate (A) the structure of HMBA analog, 4a1, (B) a graph showing HEXIM1 protein expression of breast cancer MCF7 cells treated with vehicle, HMBA, or 4a1 for 18 h, and (C) Western blot analyses of HEXIM1 targets relative to the loading control (GAPDH) of the treated cells.
MCF7, MDA-MB-231, and LNCaP cells were obtained from the American Tissue Culture Collection, and were maintained as previously described. Construction of expression vectors for control miRNA or HEXIM1 miRNAs were described previously. MCF7 or LNCaP cells were transfected with expression vectors containing either the HEXIM1 miRNA insert or a control miRNA insert as previously described. Following blasticidin selection, cells expressing the highest level of GFP were flow-sorted and expanded. MDA-MB-231 cells were transfected with control or expression vector for Flag-tagged HEXIM1 as previously described. The tamoxifen resistant cells line (TOTR) was generated by serial passage of parental MCF7 cells in growth media supplemented with 1 uM trans-hydroxytamoxifen.
Cell lysates were analyzed by western blot as previously described. Anti-HEXIM1 was generated in the Montano laboratory. Primary antibodies against p21 (C-19; cat# sc-397), cyclin D1 (HD11; cat# sc-246) and myc (9E10; cat# sc-40) were obtained from Santa Cruz Biotechnology. Anti-GAPDH was obtained from Millipore. […]

[3] = test system: recruitment of CDK9 to HEXIM1 gene in LNCaP cells; assay: ChIP assay, CDK9 recruitment to HEXIM1 gene, LNCaP cells; conditions: 5 mM HMBA or 50 μM 4a1, 90 minutes
Experimental: FIGS. 6(A-B) illustrate graphs showing HEXIM1 graphs showing HMBA and 4a1 induced recruitment of CDK9 to HEXIM1 promoter in MCF7 and LNCaP cells treated with 5 mM HMBA or 50 μM 4a1 for 90 minutes.
ChIP assays were carried out as previously described. Anti-CDK9 antibody (D-7; cat# sc-13130) was obtained from Santa Cruz Biotechnology.
The induction of HEXIM1 by HMBA appears to involve the release of free P-TEFb from 7SK snRNP, and recruitment of P-TEFb to HEXIM1 gene. P-TEFb is a heterodimer between the cyclin-dependent kinase 9 (Cdk9) and its regulatory subunit Cyclin T1 (CycT1). We thus determined the regulation of the recruitment of CDK9 to the HEXIM1 coding sequence by HMBA and 4a1.

MCF7 cells = assay: Nile red staining of lipid droplets (differentiation marker), MCF7 cells; conditions: 72 hours
Experimental: FIGS. 8(A-B) illustrate images showing (A) MCF7 cells transfected with control or HEXIM1 siRNA or (B) MDA-MB-231 transfected with control or HEXIM1 expression vector treated with vehicle (DMSO), HMBA, or 4a1 for 72 hours. Lower panels show Western blot analyses of HEXIM1 expression in MDA-MB-231 cells transfected with control or expression vector for Flag-tagged HEXIM1.
Cells were stained with Nile red for lipid droplets (marker of cell differentiation). Briefly, the stock solution of Nile red 1 mg/ml in acetone was diluted in PBS (1:1000). The fixed cells (4% paraformaldehyde) were incubated with diluted Nile red for 5 minutes at room temperature, rinsed with PBS and observed for the presence of lipid droplets by confocal microscopy. Images were digitally captured using a Leica microscope (Leica Microsystems Inc, IL, USA).

Compound: COc1ccc(CC(=O)NCCCCCCNC(C)=O)cc1 [Compound 4a1]
- HEXIM1 expression compared to the vehicle treatment (cutoff 2.5 fold) ([1]; LNCaP cells, analogs at 500 μM, 24 h, western blot normalized to β-actin): did not reach the cutoff
- Dose-dependent study on HEXIM1 expression ([1]; western blot, FIG. 4): dose-dependently induced HEXIM1 expression
- Potency of HEXIM1 induction compared to HMBA [2]: increased potency
- Recruitment of CDK9 to HEXIM1 gene [3]: induce recruitment of CDK9
- Cell differentiation (lipid droplets, Nile red) (MCF7 cells): induced differentiation
